# Laboratory results reported in patent publication US20220356174A1, “PYRIDIN-2-ONE COMPOUNDS USEFUL AS SMARCA2 ANTAGONISTS” (Epizyme, Inc., priority 2018, published 2022).
# Read-outs that look alike come from different tables or passages of the source.
# Assays:
# [1] = biological target: T1, FL-SMARCA2 (full-length human SMARCA2 isoform 1) (Homo sapiens, UniProt P51531); assay: SMARCA2 ATPase activity assay (ADP-Glo, chicken mononucleosome substrate); assay type: biochemical; settings: ATPase assay, enzyme 5 nM, ATP 250 uM, chicken mononucleosome 10 nM, 30 min preincubation
# T1 construct: FLAG tag (YKDDDDK) (C); made in house; host or cells: Sf21 insect cells (baculovirus, pFastBacI)
# T1 sequence (P51531 with tags, fused parts or gaps): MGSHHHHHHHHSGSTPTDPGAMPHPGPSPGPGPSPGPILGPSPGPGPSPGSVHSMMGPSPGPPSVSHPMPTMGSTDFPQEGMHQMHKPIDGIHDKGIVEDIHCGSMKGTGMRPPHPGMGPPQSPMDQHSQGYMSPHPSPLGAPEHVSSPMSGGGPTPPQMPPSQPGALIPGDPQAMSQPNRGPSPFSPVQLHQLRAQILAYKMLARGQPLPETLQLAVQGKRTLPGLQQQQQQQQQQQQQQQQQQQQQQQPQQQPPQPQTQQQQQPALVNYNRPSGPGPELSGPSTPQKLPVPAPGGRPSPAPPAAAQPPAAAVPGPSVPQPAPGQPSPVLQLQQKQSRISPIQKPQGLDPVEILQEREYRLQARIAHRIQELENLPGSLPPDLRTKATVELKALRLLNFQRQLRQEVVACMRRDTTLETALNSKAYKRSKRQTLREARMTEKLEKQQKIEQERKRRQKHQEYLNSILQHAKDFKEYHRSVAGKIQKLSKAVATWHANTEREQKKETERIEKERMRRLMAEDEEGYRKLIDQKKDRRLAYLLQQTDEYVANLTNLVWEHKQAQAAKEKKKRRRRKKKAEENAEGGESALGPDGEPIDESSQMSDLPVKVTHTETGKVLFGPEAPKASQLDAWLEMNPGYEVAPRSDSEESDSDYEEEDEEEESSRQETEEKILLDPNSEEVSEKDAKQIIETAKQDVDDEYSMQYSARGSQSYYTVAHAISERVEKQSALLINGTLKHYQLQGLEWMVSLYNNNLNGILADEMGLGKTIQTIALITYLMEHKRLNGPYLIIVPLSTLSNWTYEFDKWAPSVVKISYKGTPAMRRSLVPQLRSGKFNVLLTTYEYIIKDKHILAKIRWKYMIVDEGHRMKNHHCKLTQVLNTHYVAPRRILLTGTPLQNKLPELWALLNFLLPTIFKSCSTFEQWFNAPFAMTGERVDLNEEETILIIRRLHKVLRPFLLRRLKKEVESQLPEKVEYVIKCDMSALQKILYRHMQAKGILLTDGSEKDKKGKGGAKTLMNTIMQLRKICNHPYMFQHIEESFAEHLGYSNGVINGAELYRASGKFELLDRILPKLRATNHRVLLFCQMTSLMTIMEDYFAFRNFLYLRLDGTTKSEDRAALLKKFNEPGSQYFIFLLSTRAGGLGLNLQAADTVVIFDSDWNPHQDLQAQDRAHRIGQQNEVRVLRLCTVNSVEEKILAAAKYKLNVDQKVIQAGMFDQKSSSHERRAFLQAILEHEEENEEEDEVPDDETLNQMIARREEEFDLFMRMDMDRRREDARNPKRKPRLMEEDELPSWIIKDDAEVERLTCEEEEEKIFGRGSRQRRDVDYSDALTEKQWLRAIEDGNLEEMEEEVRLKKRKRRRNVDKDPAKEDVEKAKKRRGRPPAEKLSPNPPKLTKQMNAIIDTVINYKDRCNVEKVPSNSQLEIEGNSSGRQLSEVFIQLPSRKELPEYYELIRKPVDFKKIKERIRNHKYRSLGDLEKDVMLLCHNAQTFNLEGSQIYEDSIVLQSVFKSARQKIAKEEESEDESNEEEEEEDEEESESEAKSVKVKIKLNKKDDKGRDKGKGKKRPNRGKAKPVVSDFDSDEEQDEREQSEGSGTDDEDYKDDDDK
# [2] = biological target: FL-SMARCA4 (Homo sapiens, UniProt P51532); assay: SMARCA4 ATPase activity assay (ADP-Glo, chicken mononucleosome substrate)
# Chain of FL-SMARCA4 (P51532 whole entry): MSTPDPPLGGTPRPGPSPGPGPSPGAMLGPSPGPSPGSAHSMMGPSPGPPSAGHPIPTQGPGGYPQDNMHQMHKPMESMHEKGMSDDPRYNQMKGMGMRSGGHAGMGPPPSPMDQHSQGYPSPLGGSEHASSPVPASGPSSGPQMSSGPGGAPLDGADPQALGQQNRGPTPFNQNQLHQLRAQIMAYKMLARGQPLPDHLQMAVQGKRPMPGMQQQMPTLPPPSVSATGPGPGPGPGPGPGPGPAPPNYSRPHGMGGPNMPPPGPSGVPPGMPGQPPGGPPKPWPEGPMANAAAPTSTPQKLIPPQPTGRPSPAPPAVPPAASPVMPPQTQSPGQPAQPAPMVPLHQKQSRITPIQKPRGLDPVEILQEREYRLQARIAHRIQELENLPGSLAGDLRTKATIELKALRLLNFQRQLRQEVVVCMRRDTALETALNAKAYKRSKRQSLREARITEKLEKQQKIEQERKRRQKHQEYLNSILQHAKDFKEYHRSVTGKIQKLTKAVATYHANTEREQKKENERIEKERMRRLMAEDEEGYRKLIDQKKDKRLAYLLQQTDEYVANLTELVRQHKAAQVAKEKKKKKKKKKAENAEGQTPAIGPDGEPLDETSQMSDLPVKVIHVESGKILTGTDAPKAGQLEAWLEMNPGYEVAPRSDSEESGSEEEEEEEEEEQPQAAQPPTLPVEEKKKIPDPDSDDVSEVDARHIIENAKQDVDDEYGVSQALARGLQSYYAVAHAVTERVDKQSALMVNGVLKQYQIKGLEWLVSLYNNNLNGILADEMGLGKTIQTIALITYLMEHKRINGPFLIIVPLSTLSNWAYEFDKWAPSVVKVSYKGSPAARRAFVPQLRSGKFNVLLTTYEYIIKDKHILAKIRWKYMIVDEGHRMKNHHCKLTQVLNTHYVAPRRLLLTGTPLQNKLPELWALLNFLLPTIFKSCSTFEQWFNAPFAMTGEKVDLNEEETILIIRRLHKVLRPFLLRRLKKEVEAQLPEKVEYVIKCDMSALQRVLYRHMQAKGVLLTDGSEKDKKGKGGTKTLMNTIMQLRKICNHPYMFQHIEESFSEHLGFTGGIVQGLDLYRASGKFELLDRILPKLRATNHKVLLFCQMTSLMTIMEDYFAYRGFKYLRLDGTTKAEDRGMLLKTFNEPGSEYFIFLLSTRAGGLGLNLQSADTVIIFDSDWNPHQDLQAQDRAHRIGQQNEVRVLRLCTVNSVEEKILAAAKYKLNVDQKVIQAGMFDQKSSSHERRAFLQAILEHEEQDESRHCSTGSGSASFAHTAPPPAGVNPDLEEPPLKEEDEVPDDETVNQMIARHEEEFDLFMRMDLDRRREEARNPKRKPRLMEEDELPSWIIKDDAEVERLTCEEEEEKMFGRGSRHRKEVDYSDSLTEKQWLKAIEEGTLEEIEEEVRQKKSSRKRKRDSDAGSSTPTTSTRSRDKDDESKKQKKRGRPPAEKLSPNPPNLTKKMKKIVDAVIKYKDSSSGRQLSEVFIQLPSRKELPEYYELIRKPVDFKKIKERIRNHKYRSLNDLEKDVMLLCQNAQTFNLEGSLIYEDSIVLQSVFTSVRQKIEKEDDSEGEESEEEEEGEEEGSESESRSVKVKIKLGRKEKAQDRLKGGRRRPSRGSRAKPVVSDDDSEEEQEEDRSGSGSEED
# Protocol: Substrates. Chicken erythrocyte mononucleosomes were prepared from fresh chicken blood collected into anticoagulant and filtered through cheesecloth. The filtered chicken blood was diluted in buffer A (10 mM Tris-HCl, pH 7.4, 10 mM NaCl, 3 mM MgCl2) and centrifuged at 500 g for 15 minutes to collect the erythrocytes. Erythrocyte nuclei were harvested by resuspending the pellets in buffer A containing 0.3% NP-40 detergent. The mixture was stirred with a magnetic bar for 10 mins and centrifuged at 4000 g for 10 minutes. Resuspension, stirring and centrifugation was repeated twice more before the final nuclei pellet was resuspended in buffer A+0.3% NP-40 and stored at −80° C. until purification. For nucleosome purification, nuclei aliquots were rapidly thawed and washed five times with buffer B (10 mM Tris-HCl, pH 7.4, 1 mM CaCl2), 1 mM PMSF) and collected by centrifugation at 2800 g for 10 minutes. Pellets were resuspended in buffer B and treated with 100 U/mL micrococcal nuclease for 40 minutes at 37° C. The reaction was terminated by the addition of 2 mM EDTA and was centrifuged at 2800 g for 10 minutes. The nuclei were then lysed by resuspending the pellet in 1 mM EDTA and 1 mM PMSF and passing the mixture through a 22G needle 4 to 5 times. The solution was then centrifuged at 15,000 g for 20 minutes and the supernatant was collected. The remaining pellet was lysed through the syringe twice more and the supernatants were pooled after centrifugation. The pooled supernatants were further purified by size exclusion chromatography (GE Sephacryl S300 HR 50/100) in buffer C (10 mM HEPES, pH 7.5, 10 mM KCl, 1 mM EDTA, 1 mM PMSF, 10% glycerol). Fractions were analyzed by agarose gel electrophoresis and SDS-PAGE and fractions containing mononucleosomes were pooled and stored at −80° C.
# The SMARCA2 or SMARCA4 ATPase assays were identical. The SMARCA2 or SMARCA4 ATPase assays were performed in a buffer consisting of 20 mM Bicine (pH 7.5), 10 mM KCl, 1 mM MgCl2, 1 mM TCEP, 0.005% BSG, and 0.002% Tween 20, prepared on the day of use. Compounds in 100% DMSO were 3-fold serially diluted to produce a 10 point curve for IC50 determination and 0.2 uL were transferred into polypropylene 384-well V-bottom plates (Greiner) using an Echo liquid handler (Labcyte). DMSO (0.2 uL) was added to Columns 11, 12, 23, 24, rows A-H for the maximum signal control and 0.2 uL doxorubicin, a known DNA intercalator, was added to columns 11, 12, 23, 24, rows I-P for the minimum signal control. The SMARCA2 or SMARCA4 enzyme (10 uL) was added to the compounds and allowed to incubate with the compounds for 30 min at room temperature. The SMARCA2 or SMARCA4 ATPase assay was initiated by the addition of 10 uL chicken mononucleosome and ATP mixture (final volume=20 uL). The final concentrations of the assay components were as follows: SMARCA2 or SMARCA4 was 5 nM, ATP was 250 uM, chicken mononucleosome was 10 nM, doxorubicin in the minimum signal control wells was 50 uM, and the DMSO concentration was 1%. 5 uL of the reaction mixture was transferred from the 384-well polypropylene plate to a white opaque polystyrene 384-well plate. At 60 minutes, the assays were terminated by the addition of 5 uL ADP-Glo™ Reagent (Promega). After 40 minutes, the luciferase reaction was initiated by the addition of 10 uL of Kinase Detection Reagent (Promega) and incubated for 1 hour. The ADP product generated from the SMARCA2 or SMARCA4 ATPase reaction was determined via luminescence intensity.
# [3] = FL-SMARCA4 IC50, Table 3.2, ATPase assay, enzyme 5 nM, ATP 250 uM, chicken mononucleosome 10 nM, 30 min preincubation
# [4] = FL-SMARCA4 IC>50, Table 3c.2, ATPase assay, enzyme 5 nM, ATP 250 uM, chicken mononucleosome 10 nM, 30 min preincubation
structure (smiles),measurement,setting,value
CCn1cc(NC(=O)c2nnc(C)s2)ccc1=O [Compound 78],IC50,[1]; Table 3.1,> 50 µM
same,IC50,[2]; [3],> 50 µM
CCn1cc(C(=O)Nc2cc(Cl)c(Cl)s2)ccc1=O [Compound 79],IC50,[1]; Table 3.1,> 50 µM
same,IC50,[2]; [3],> 50 µM
O=C(Nc1ccc(=O)n(CC(F)F)c1)c1cc(Cl)c(Cl)s1 [Compound 81],IC50,[1]; Table 3.1,0.223 µM
same,IC50,[2]; [3],0.723 µM
O=C(Nc1ccc(=O)n(CC2CC2)c1)c1cc(Cl)c(Cl)s1 [Compound 82],IC50,[1]; Table 3.1,14.8 µM
same,IC50,[2]; [3],28.9 µM
O=C(Nc1ccc(=O)n(CCO)c1)c1cc(Cl)c(Cl)s1 [Compound 83],IC50,[1]; Table 3.1,20.8 µM
same,IC50,[2]; [3],> 50 µM
CCn1cc(NC(=O)c2cc(Cl)c(Cl)s2)cc(Cl)c1=O [Compound 84],IC50,[1]; Table 3.1,0.197 µM
same,IC50,[2]; [3],1.12 µM
O=C(Nc1cc(F)c(=O)n(CC(F)F)c1)c1cc2cc(-c3ccncc3)ccc2s1 [Compound 84c],IC50,[1]; Table 3c.1,1.85 µM
same,IC50,[2]; [4],28.9 µM
O=C(Nc1ccc(=O)n(CC(F)(F)F)c1)c1cc(Cl)c(Cl)n1CCF [Compound 85],IC50,[1]; Table 3.1,12 µM
same,IC50,[2]; [3],34.7 µM
CCn1cc(NC(=O)c2cc(Cl)c(C#N)s2)ccc1=O [Compound 86],IC50,[1]; Table 3.1,0.365 µM
same,IC50,[2]; [3],0.669 µM
COCCn1cc(NC(=O)c2cc(Cl)c(Cl)s2)ccc1=O [Compound 87],IC50,[1]; Table 3.1,> 50 µM
same,IC50,[2]; [3],> 50 µM
CCn1cc(NC(=O)c2ccc(CN(C)C)s2)ccc1=O [Compound 88],IC50,[1]; Table 3.1,> 50 µM
same,IC50,[2]; [3],> 50 µM
Cn1ccnc1-c1cc(NC(=O)c2cc(Cl)c(C(F)(F)F)s2)cn(CC(F)F)c1=O [Compound 88c],IC50,[1]; Table 3c.1,> 50 µM
same,IC50,[2]; [4],> 50 µM
CN(C)CCn1cc(NC(=O)c2cc(Cl)c(Cl)n2C)ccc1=O [Compound 89],IC50,[1]; Table 3.1,> 50 µM
same,IC50,[2]; [3],> 50 µM
CCn1cc(NC(=O)c2nncs2)ccc1=O [Compound 90],IC50,[1]; Table 3.1,> 50 µM
same,IC50,[2]; [3],> 50 µM
CCc1cc(C(=O)Nc2ccc(=O)n(CC)c2)sc1Cl [Compound 91],IC50,[1]; Table 3.1,> 50 µM
same,IC50,[2]; [3],> 50 µM
Cn1cnc(-c2cc(NC(=O)c3cc(Cl)c(C(F)(F)F)s3)cn(CC(F)F)c2=O)c1 [Compound 91c],IC50,[1]; Table 3c.1,> 50 µM
same,IC50,[2]; [4],> 50 µM
CCn1cc(NC(=O)c2cnn(C)c2)ccc1=O [Compound 92],IC50,[1]; Table 3.1,> 50 µM
same,IC50,[2]; [3],> 50 µM
CCn1cc(NC(=O)c2ccn(C)n2)ccc1=O [Compound 93],IC50,[1]; Table 3.1,> 50 µM
same,IC50,[2]; [3],> 50 µM
N#Cc1sc(C(=O)Nc2cc(F)c(=O)n(CC(F)F)c2)cc1C#CC1COC1 [Compound 93c],IC50,[1]; Table 3c.1,> 50 µM
same,IC50,[2]; [4],> 50 µM
CCn1cc(NC(=O)c2cc(Cl)n[nH]2)ccc1=O [Compound 94],IC50,[1]; Table 3.1,3.15 µM
same,IC50,[2]; [3],11.5 µM
O=C(Nc1cc(F)c(=O)n(CC(F)F)c1)c1cc(C#CC2COC2)c(C2CC2)s1 [Compound 94c],IC50,[1]; Table 3c.1,> 50 µM
same,IC50,[2]; [4],> 50 µM
N#Cc1cc(C(=O)Nc2cc(F)c(=O)n(CC(F)F)c2)sc1C1(F)CC1 [Compound 94d],IC50,"[1]; Table 3d.1, read-out: FL-SMARCA2 IC>50",1.77 µM
same,IC50,[2]; FL-SMARCA4 IC50,17.9 µM
CCc1sc(C(=O)Nc2ccc(=O)n(CC)c2)cc1Cl [Compound 95],IC50,[1]; Table 3.1,> 50 µM
same,IC50,[2]; [3],> 50 µM
CCn1cc(NC(=O)c2cc(Cl)n(C)c2Cl)ccc1=O [Compound 96],IC50,[1]; Table 3.1,> 50 µM
same,IC50,[2]; [3],> 50 µM
CCn1cc(NC(=O)c2cc(Cl)[nH]c2Cl)ccc1=O [Compound 97],IC50,[1]; Table 3.1,> 50 µM
same,IC50,[2]; [3],> 50 µM
CCn1cc(NC(=O)c2cc(CN(C)C)cs2)ccc1=O [Compound 98],IC50,[1]; Table 3.1,> 50 µM
same,IC50,[2]; [3],> 50 µM
O=C(Nc1cc(F)c(=O)n(CC(F)(F)CO)c1)c1cc(Cl)c(Cl)s1 [Compound 100c],IC50,[1]; Table 3c.1,6.81 µM
same,IC50,[2]; [4],27.6 µM
O=C(Nc1cc(-c2cnco2)c(=O)n(CC(F)F)c1)c1cc(Cl)c(C(F)(F)F)s1 [Compound 101c],IC50,[1]; Table 3c.1,> 50 µM
same,IC50,[2]; [4],> 50 µM
O=C(Nc1cc(Cl)c(=O)n(CC(F)(F)F)c1)c1cc(Cl)c(Cl)s1 [Compound 102],IC50,[1]; Table 3.1,4.12 µM
same,IC50,[2]; [3],18.6 µM
O=C(Nc1cc(-c2ncco2)c(=O)n(CC(F)F)c1)c1cc(Cl)c(C(F)(F)F)s1 [Compound 102c],IC50,[1]; Table 3c.1,> 50 µM
same,IC50,[2]; [4],> 50 µM
CCn1cc(NC(=O)c2cnc(Cl)s2)cc(Cl)c1=O [Compound 103],IC50,[1]; Table 3.1,0.356 µM
same,IC50,[2]; [3],0.531 µM
Cn1ccc(-c2cc(NC(=O)c3cc(Cl)c(C(F)(F)F)s3)cn(CC(F)F)c2=O)n1 [Compound 103c],IC50,[1]; Table 3c.1,31.3 µM
same,IC50,[2]; [4],26 µM
O=C(Nc1cc(Cl)c(=O)n(CC(F)(F)F)c1)c1cnc(Cl)s1 [Compound 104],IC50,[1]; Table 3.1,0.192 µM
same,IC50,[2]; [3],0.229 µM
O=C(Nc1cc(-c2c[nH]cn2)c(=O)n(CC(F)F)c1)c1cc(Cl)c(C(F)(F)F)s1 [Compound 104c],IC50,[1]; Table 3c.1,22.4 µM
same,IC50,[2]; [4],29.6 µM
CCn1cc(NC(=O)c2cc(Cl)c(Cl)s2)cc(C)c1=O [Compound 105],IC50,[1]; Table 3.1,27.8 µM
same,IC50,[2]; [3],> 50 µM
O=C1CC(C#Cc2cc(C(=O)Nc3cc(F)c(=O)n(CC(F)F)c3)sc2Cl)CCN1 (stereo not drawn) [Compound 105c],IC50,[1]; Table 3c.1,0.0407 µM
same,IC50,[2]; [4],0.172 µM
CCn1cc(NC(=O)c2cc(C#N)c(Cl)s2)ccc1=O [Compound 106],IC50,[1]; Table 3.1,0.417 µM
same,IC50,[2]; [3],0.838 µM
O=C(Nc1cc(F)c(=O)n(CC(F)F)c1)c1cc(C#Cc2ccncc2)c(F)s1 [Compound 106c],IC50,[1]; Table 3c.1,0.028 µM
same,IC50,[2]; [4],0.0533 µM
CCn1cc(NC(=O)c2cc(Cl)ns2)ccc1=O [Compound 107],IC50,[1]; Table 3.1,36.7 µM
same,IC50,[2]; [3],> 50 µM
COc1nc(C#Cc2cc(C(=O)Nc3cc(F)c(=O)n(CC(F)F)c3)sc2Cl)cs1 [Compound 107c],IC50,[1]; Table 3c.1,0.0508 µM
same,IC50,[2]; [4],0.142 µM
CCn1cc(NC(=O)c2cn(C)c(Cl)n2)ccc1=O [Compound 108],IC50,[1]; Table 3.1,> 50 µM
same,IC50,[2]; [3],> 50 µM
O=C(Nc1cc(F)c(=O)n(CC(F)F)c1)c1cc(C#CC2COC2)c(F)s1 [Compound 108c],IC50,[1]; Table 3c.1,0.0818 µM
same,IC50,[2]; [4],0.2 µM
CCn1cc(NC(=O)c2cc(Cl)c(Cl)s2)cc(F)c1=O [Compound 109],IC50,[1]; Table 3.1,0.173 µM
same,IC50,[2]; [3],0.559 µM
O=C(Nc1cc(F)c(=O)n(CC(F)F)c1)c1cc(F)c(F)s1 [Compound 109c],IC50,[1]; Table 3c.1,0.0625 µM
same,IC50,[2]; [4],0.159 µM
CCn1cc(NC(=O)c2cc(Cl)c(Cl)s2)cc(OC)c1=O [Compound 110],IC50,[1]; Table 3.1,> 50 µM
same,IC50,[2]; [3],> 50 µM
O=C(Nc1cc(-c2cn[nH]c2)c(=O)n(CC(F)F)c1)c1cc(Cl)c(C(F)(F)F)s1 [Compound 110c],IC50,[1]; Table 3c.1,> 50 µM
same,IC50,[2]; [4],> 50 µM
CCn1cc(NC(=O)c2cc(Cl)c(Cl)s2)cc(C(C)C)c1=O [Compound 111],IC50,[1]; Table 3.1,> 50 µM
same,IC50,[2]; [3],> 50 µM
CCCc1cc(NC(=O)c2cc(Cl)c(Cl)s2)cn(CC)c1=O [Compound 112],IC50,[1]; Table 3.1,> 50 µM
same,IC50,[2]; [3],> 50 µM
O=C(Nc1cc(F)c(=O)n(CC(F)F)c1)c1cc(C#Cc2ccncc2)n[nH]1 [Compound 112c],IC50,[1]; Table 3c.1,> 50 µM
same,IC50,[2]; [4],> 50 µM
CCn1cc(NC(=O)c2cc(Cl)c(Cl)s2)cc(NCCOC)c1=O [Compound 113],IC50,[1]; Table 3.1,14.1 µM
same,IC50,[2]; [3],16.6 µM
CCn1cc(NC(=O)c2cc(Cl)c(Cl)s2)cc(NCCN(C)C)c1=O [Compound 114],IC50,[1]; Table 3.1,9.42 µM
same,IC50,[2]; [3],14.3 µM
O=C(Nc1cc(F)c(=O)n(CC(F)F)c1)c1cc2c(s1)C(F)(F)CNC2 [Compound 114c],IC50,[1]; Table 3c.1,30.5 µM
same,IC50,[2]; [4],> 50 µM
CCn1cc(NC(=O)c2ccn(C)c2Cl)ccc1=O [Compound 115],IC50,[1]; Table 3.1,> 50 µM
same,IC50,[2]; [3],16.7 µM
CN1Cc2cc(C(=O)Nc3cc(F)c(=O)n(CC(F)F)c3)sc2C(F)(F)C1 [Compound 115c],IC50,[1]; Table 3c.1,> 50 µM
same,IC50,[2]; [4],> 50 µM
